How the values were obtained:
[1] = tested on: mesenchymal stem cells in peripheral blood; assay: Solid-phase culture of peripheral blood after administration of HMGB1 peptide 1-44 (earlier experiments of the inventors); type: in vivo
From the text: In addition, the colonies obtained as a result of culturing, on a solid phase, peripheral blood after administration of a peptide consisting of amino acid residues 1-44 of the human HMGB1 protein (hereinafter, HMGB1 peptide 1-44), which has an activity of mobilizing mesenchymal stem cells into peripheral blood, have been confirmed to have adherability to solid phase and self-renewal ability, and to be PDGFRα positive. They have also been confirmed to have a gene expression profile characteristic to mesenchymal stem cells, based on the results of clustering the transcriptome analysis data and performing gene ontology analysis.
Furthermore, it has been confirmed that the number of colonies obtained by solid-phase culture is larger in the peripheral blood after administration of HMGB1 peptide 1-44 than in the peripheral blood after administration of physiological saline.

psoriasis model mice = assay: Auricular thickness in imiquimod-induced psoriasis model mice; type: in vivo, C57BL/6 mice; conditions: 5% imiquimod cream on auricular skin once a day for seven days; 5 mg/kg/day peptide into tail vein for seven days; n=4; FIG. 9
Protocol: To induce psoriasis by imiquimod, a cream containing 5% imiquimod (Beseruna cream 5%, Mochida Pharmaceutical Co., Ltd.) was used. In the drawing corresponding to the Example of the present application, imiquimod is referred to as IMQ. In addition, the peptide NP-3 (TFA salt) described in Example 1 was used as a test substance.
C57BL/6 mice (7 weeks old, female, body weight about 20 g) were prepared. To induce psoriasis, a cream containing 5% imiquimod was applied on the auricular skin of the mice at an amount of 25 mg/ear/day (1.25 mg/ear/day imiquimod) once a day for seven days. Moreover, mice without imiquimod application (hereinafter, referred to as “normal mice”) were used as a comparison target.
The psoriasis model mice prepared as described above were divided into a peptide-administered group (n=4) and a control group (n=4). […]
During the test period, the auricle thickness of mice was measured daily using a micrometer (manufactured by Mitutoyo Co., Ltd., Product No. CLM1-15QM), and the size of change from the auricle thickness before the start of imiquimod application (Day 0) was calculated. The degree of skin thickening was evaluated using the size of change as an index.

Substance | number of colonies obtained by solid-phase culture of peripheral blood, compared with peripheral blood after administration of physiological saline [1] | increase in auricular thickness as compared with the control group (psoriasis model mice)
HMGB1 peptide 1-44: peptide consisting of amino acid residues 1-44 of the human HMGB1 protein, which has an activity of mobilizing mesenchymal stem cells into peripheral blood (MGKGDPKKPRGKMSSYAFFVQTCREEHKKKHPDASVNFSEFSKK; UniProt P09429 1-44, looked up, fragment) | larger | 
NP-3: Chemically synthesized fragment peptide of mouse YBX1 protein, positions 174-203, SEQ ID NO: 37 (SAPEGQAQQRRPYRRRRFPPYYMRRPYARR; listed as Mus musculus) |  | suppressed

Source: patent publication US12304933B2, “Disease treatment drug based on mesenchymal-stem-cell mobilization” (StemRIM Inc., priority 2018, dated 2025)
